According to the CheMixHub viscosity set:

Assay: xn = mol fraction of the nth substance listed

ClC(Cl)(Cl)Cl + c1ccccc1
Details	viscosity [mPa·s]
293.25 K, 101 kPa, x1 = 0.4	0.8063
293.25 K, 101 kPa, x1 = 0.5	0.8381
293.25 K, 101 kPa, x1 = 0.8	0.943
293.35 K, 101 kPa, x1 = 0.2	0.7416
298 K, 101 kPa, x1 = 0.1367	0.64
298 K, 101 kPa, x1 = 0.1809	0.653
298 K, 101 kPa, x1 = 0.2176	0.664
298 K, 101 kPa, x1 = 0.2521	0.672
298 K, 101 kPa, x1 = 0.2882	0.68
298 K, 101 kPa, x1 = 0.3188	0.688
298 K, 101 kPa, x1 = 0.3463	0.697
298 K, 101 kPa, x2 = 0.189	0.8814
298 K, 101 kPa, x2 = 0.2701	0.8626
298 K, 101 kPa, x2 = 0.344	0.845
298 K, 101 kPa, x2 = 0.4734	0.8084
298 K, 101 kPa, x2 = 0.583	0.7751
298 K, 101 kPa, x2 = 0.6318	0.7601
298 K, 101 kPa, x2 = 0.6771	0.7455
298 K, 101 kPa, x2 = 0.7194	0.7309
298 K, 101 kPa, x2 = 0.7588	0.7176
298 K, 101 kPa, x2 = 0.8303	0.6917
298 K, 101 kPa, x2 = 0.8935	0.667
298 K, 101 kPa, x2 = 0.9224	0.6567
298 K, 101 kPa, x2 = 0.9497	0.6424
298 K, 101.3 kPa, x1 = 0.1472	0.655
298 K, 101.3 kPa, x1 = 0.2844	0.69
298 K, 101.3 kPa, x1 = 0.4778	0.744
298 K, 101.3 kPa, x1 = 0.6302	0.79
298 K, 101.3 kPa, x1 = 0.8302	0.842
298.15 K, 101 kPa, x1 = 0.0951	0.6268
298.15 K, 101 kPa, x1 = 0.169	0.6474
298.15 K, 101 kPa, x1 = 0.2348	0.6652
298.15 K, 101 kPa, x1 = 0.2559	0.6726
298.15 K, 101 kPa, x1 = 0.3734	0.7073
298.15 K, 101 kPa, x1 = 0.4835	0.7352
298.15 K, 101 kPa, x1 = 0.4917	0.7429
298.15 K, 101 kPa, x1 = 0.5951	0.7742
298.15 K, 101 kPa, x1 = 0.6135	0.7803
298.15 K, 101 kPa, x1 = 0.7561	0.8236
298.15 K, 101 kPa, x1 = 0.7767	0.8291
298.15 K, 101 kPa, x1 = 0.9264	0.8783
298.15 K, 101 kPa, x2 = 0.1022	0.8965
298.15 K, 101 kPa, x2 = 0.2	0.832
298.15 K, 101 kPa, x2 = 0.2062	0.8621
298.15 K, 101 kPa, x2 = 0.2386	0.808
298.15 K, 101 kPa, x2 = 0.3055	0.8356
298.15 K, 101 kPa, x2 = 0.4	0.773
298.15 K, 101 kPa, x2 = 0.4022	0.8053
298.15 K, 101 kPa, x2 = 0.5051	0.7709
298.15 K, 101 kPa, x2 = 0.5755	0.706
298.15 K, 101 kPa, x2 = 0.6	0.714
298.15 K, 101 kPa, x2 = 0.604	0.7357
298.15 K, 101 kPa, x2 = 0.7006	0.7062
298.15 K, 101 kPa, x2 = 0.736	0.66
298.15 K, 101 kPa, x2 = 0.8	0.658
298.15 K, 101 kPa, x2 = 0.8004	0.6785
298.15 K, 101 kPa, x2 = 0.8991	0.6415
298.15 K, 101.33 kPa, x1 = 0.125	0.6346
298.15 K, 101.33 kPa, x1 = 0.2348	0.6652
298.15 K, 101.33 kPa, x1 = 0.4835	0.7352
298.15 K, 101.33 kPa, x1 = 0.5	0.7404
298.15 K, 101.33 kPa, x1 = 0.65	0.7872
298.15 K, 101.33 kPa, x1 = 0.7767	0.8291
298.15 K, 101.33 kPa, x1 = 0.9	0.8691
302.65 K, 101 kPa, x1 = 0.4	0.707
302.65 K, 101 kPa, x1 = 0.5	0.7278
303.15 K, 101 kPa, x2 = 0.1022	0.8407
303.15 K, 101 kPa, x2 = 0.2062	0.8084
303.15 K, 101 kPa, x2 = 0.3055	0.7825
303.15 K, 101 kPa, x2 = 0.4022	0.7545
303.15 K, 101 kPa, x2 = 0.5051	0.7209
303.15 K, 101 kPa, x2 = 0.604	0.688
303.15 K, 101 kPa, x2 = 0.7006	0.6616
303.15 K, 101 kPa, x2 = 0.8004	0.6348
303.15 K, 101 kPa, x2 = 0.8991	0.6047
303.25 K, 101 kPa, x1 = 0.8	0.8132
303.35 K, 101 kPa, x1 = 0.6	0.7543
303.65 K, 101 kPa, x1 = 0.2	0.6404
308 K, 101 kPa, x2 = 0.189	0.7518
308 K, 101 kPa, x2 = 0.2701	0.7355
308 K, 101 kPa, x2 = 0.344	0.7202
308 K, 101 kPa, x2 = 0.4734	0.6919
308 K, 101 kPa, x2 = 0.583	0.6652
308 K, 101 kPa, x2 = 0.6318	0.6524
308 K, 101 kPa, x2 = 0.6771	0.6391
308 K, 101 kPa, x2 = 0.7194	0.627
308 K, 101 kPa, x2 = 0.7588	0.6159
308 K, 101 kPa, x2 = 0.8303	0.5939
308 K, 101 kPa, x2 = 0.8935	0.5753
308 K, 101 kPa, x2 = 0.9224	0.5661
308 K, 101 kPa, x2 = 0.9497	0.5573
308.15 K, 101 kPa, x2 = 0.1022	0.7881
308.15 K, 101 kPa, x2 = 0.2062	0.758
308.15 K, 101 kPa, x2 = 0.3055	0.732
308.15 K, 101 kPa, x2 = 0.4022	0.7062
308.15 K, 101 kPa, x2 = 0.5051	0.6748
308.15 K, 101 kPa, x2 = 0.604	0.6434
308.15 K, 101 kPa, x2 = 0.7006	0.62
308.15 K, 101 kPa, x2 = 0.8004	0.5929
308.15 K, 101 kPa, x2 = 0.8991	0.5655
312.15 K, 101 kPa, x1 = 0.5	0.6431
312.35 K, 101 kPa, x1 = 0.4	0.6172
312.35 K, 101 kPa, x1 = 0.6	0.6695
312.35 K, 101 kPa, x1 = 0.8	0.7173
312.65 K, 101 kPa, x1 = 0.2	0.5692
313.15 K, 101 kPa, x2 = 0.1022	0.7415
313.15 K, 101 kPa, x2 = 0.2062	0.7096
313.15 K, 101 kPa, x2 = 0.3055	0.6862
313.15 K, 101 kPa, x2 = 0.4022	0.659
313.15 K, 101 kPa, x2 = 0.5051	0.6313
313.15 K, 101 kPa, x2 = 0.604	0.6024
313.15 K, 101 kPa, x2 = 0.7006	0.58
313.15 K, 101 kPa, x2 = 0.8004	0.5544
313.15 K, 101 kPa, x2 = 0.8991	0.5291
318 K, 101 kPa, x2 = 0.189	0.6483
318 K, 101 kPa, x2 = 0.2701	0.6346
318 K, 101 kPa, x2 = 0.344	0.6217
318 K, 101 kPa, x2 = 0.4734	0.599
318 K, 101 kPa, x2 = 0.583	0.5775
318 K, 101 kPa, x2 = 0.6318	0.5665
318 K, 101 kPa, x2 = 0.6771	0.5566
318 K, 101 kPa, x2 = 0.7194	0.5469
318 K, 101 kPa, x2 = 0.7588	0.5373
318 K, 101 kPa, x2 = 0.8303	0.5209
318 K, 101 kPa, x2 = 0.8935	0.5053
318 K, 101 kPa, x2 = 0.9224	0.4992
318 K, 101 kPa, x2 = 0.9497	0.492
318 K, 101.3 kPa, x1 = 0.1399	0.5125
318 K, 101.3 kPa, x1 = 0.2838	0.5478
318 K, 101.3 kPa, x1 = 0.4793	0.6011
318 K, 101.3 kPa, x1 = 0.6289	0.6411
318 K, 101.3 kPa, x1 = 0.8405	0.6993
322.25 K, 101 kPa, x1 = 0.2	0.5085
